# Molecular target: T1, PxylGr34 (Plutella xylostella, UniProt A0ABQ7Q355)
# T1 construct: gene JYU34_016516; no tag or co-receptor stated
# T1 sequence (A0ABQ7Q355 1-418): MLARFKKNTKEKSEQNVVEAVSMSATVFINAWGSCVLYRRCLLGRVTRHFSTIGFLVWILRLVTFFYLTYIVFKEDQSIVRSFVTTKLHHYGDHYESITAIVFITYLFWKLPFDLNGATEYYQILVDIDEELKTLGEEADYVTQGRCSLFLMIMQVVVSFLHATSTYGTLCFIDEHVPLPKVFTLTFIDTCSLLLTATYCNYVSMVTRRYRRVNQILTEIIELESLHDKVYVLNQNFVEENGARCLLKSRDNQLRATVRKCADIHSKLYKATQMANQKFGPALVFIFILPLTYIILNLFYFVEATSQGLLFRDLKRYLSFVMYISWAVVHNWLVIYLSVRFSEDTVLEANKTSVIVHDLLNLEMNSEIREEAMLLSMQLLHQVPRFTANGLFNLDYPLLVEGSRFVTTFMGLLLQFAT
# Assay: two-electrode voltage clamp, Xenopus oocytes
# Assay type: cell-based
# Settings: inward current, agonist at 10^-4 M, pH 7.5, holding potential -80 mV
Structure (SMILES),"two-electrode voltage clamp, Xenopus oocytes","two-electrode voltage clamp, Xenopus oocytes (dose series recorded)"
C=CCN=C=S [Allyl isothiocyanate],Oocytes expressing PxylGr34 showed weak responses to methyl jasmonate and allyl isothiocyanate,
CC(C)[C@H](C)[C@@H](O)[C@H](O)[C@@H](C)[C@H]1CC[C@H]2[C@@H]3COC(=O)[C@H]4C[C@H](O)[C@H](O)C[C@]4(C)[C@H]3CC[C@]12C [Brassinolide],,BL induced a strong response in the oocytes expressing PxylGr34
CC/C=C\C[C@H]1C(=O)CC[C@@H]1CC(=O)OC [Methyl jasmonate],Oocytes expressing PxylGr34 showed weak responses to methyl jasmonate and allyl isothiocyanate,
